Laboratory results reported in ChEMBL document CHEMBL1201862, “PubChem BioAssay data set” (2004).
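Step 1: Grow cells in 96-well plates. Step 2: Expose to compound for 48 hours at 5 concentrations. Step 3: Interpolate endpoints linearly; if unreached, use highest concentration. GI50: concentration for 50% inhibition of growth.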 Activity calls are given as the source filed them. Rule as the data show it: active = GI50 up to about 1.1 µM and inactive = higher.

Assays:
Assay in all cases: NCI-60 cell line screen, 48 h
[1] = system: SW-620
[2] = system: OVCAR-8
[3] = system: T47D
[4] = system: ACHN
[5] = system: CAKI-1
[6] = system: NCI-H460
[7] = system: SN12C
[8] = system: RXF 393
[9] = system: PC-3
[10] = system: MDA-N
[11] = system: SNB-19
[12] = system: UO-31
[13] = system: HCT-116
[14] = system: HL-60
[15] = system: CCRF-CEM
[16] = system: OVCAR-3
[17] = system: SNB-75
[18] = system: Hs-578T

Row | Structure (SMILES) | GI50 [1] | GI50 [2] | GI50 [3] | GI50 [4] | GI50 [5] | GI50 [6] | GI50 [7] | GI50 [8] | GI50 [9] | GI50 [10] | GI50 [11] | GI50 [12] | GI50 [13] | GI50 [14] | GI50 [15] | GI50 [16] | GI50 [17] | GI50 [18]
1 | CC(C)c1ccc(/C=C2\CSCC3=C2N=C(S)NC3c2ccc(C(C)C)cc2)cc1 (configuration not stated) | > 100 µM (inactive) | > 100 µM (inactive) | 80.4 µM (inactive) | > 100 µM (inactive) | > 100 µM (inactive) | > 100 µM (inactive) | > 100 µM (inactive) | 30.9 µM (inactive) | 28.9 µM (inactive) | > 100 µM (inactive) | > 100 µM (inactive) | 70.6 µM (inactive) | 44.9 µM (inactive) | 59.2 µM (inactive) | 35.8 µM (inactive) | > 100 µM (inactive) | – | –
2 | CC1=C(C(=O)NNC(=O)c2ccccc2O)CC(C(=O)NNC(=O)c2ccccc2O)=C(C)N1 | 5.55 µM (inactive) | 0.845 µM (active) | 0.498 µM (active) | 0.424 µM (active) | 0.993 µM (active) | 0.533 µM (active) | 5.83 µM (inactive) | – | – | 0.336 µM (active) | 0.839 µM (active) | 0.277 µM (active) | 0.435 µM (active) | 0.512 µM (active) | 4.7 µM (inactive) | 1.55 µM (inactive) | 0.292 µM (active) | 0.197 µM (active)
3 | CCOC(=O)C1C(c2ccc3c(c2)OCO3)c2c(n[nH]c2O)CC1(C)O (configuration not stated) | > 100 µM (inactive) | > 100 µM (inactive) | > 100 µM (inactive) | > 100 µM (inactive) | > 100 µM (inactive) | > 100 µM (inactive) | > 100 µM (inactive) | – | > 100 µM (inactive) | > 100 µM (inactive) | > 100 µM (inactive) | > 100 µM (inactive) | > 100 µM (inactive) | > 100 µM (inactive) | > 100 µM (inactive) | > 100 µM (inactive) | > 100 µM (inactive) | > 100 µM (inactive)
4 | S=C(N/N=C(/c1ccccc1)c1ccccn1)Nc1ccc(Cl)cc1 | 0.0423 µM (active) | 0.0444 µM (active) | – | 0.322 µM (active) | 0.264 µM (active) | 0.531 µM (active) | 0.211 µM (active) | 1.85 µM (inactive) | 0.0476 µM (active) | 1.09 µM (active) | 3.02 µM (inactive) | 0.543 µM (active) | < 0.0162 µM (active) | < 0.01 µM (active) | < 0.0155 µM (active) | < 0.0316 µM (active) | 2.06 µM (inactive) | 0.873 µM (active)
5 | O=c1c(Cl)cc2nc3ccccc3sc-2c1Cl | 12.5 µM (inactive) | – | 5 µM (inactive) | 15.9 µM (inactive) | 22.1 µM (inactive) | 18 µM (inactive) | 17 µM (inactive) | 18.5 µM (inactive) | – | – | 17 µM (inactive) | 15.3 µM (inactive) | 16.2 µM (inactive) | 10.6 µM (inactive) | 4.67 µM (inactive) | 1.98 µM (inactive) | 16.2 µM (inactive) | 22 µM (inactive)
6 | C=C1CN=C(Nc2ccc(F)cc2F)S1 | > 100 µM (inactive) | > 100 µM (inactive) | > 100 µM (inactive) | > 100 µM (inactive) | > 100 µM (inactive) | > 100 µM (inactive) | > 100 µM (inactive) | – | > 100 µM (inactive) | > 100 µM (inactive) | > 100 µM (inactive) | > 100 µM (inactive) | > 100 µM (inactive) | 31.5 µM (inactive) | 18.3 µM (inactive) | – | 32.1 µM (inactive) | > 100 µM (inactive)
7 | CC1(C)N=C2C(=O)c3c([nH]c4ccccc34)[C@]3(C)CCC1CC23 (some centres not stated) | > 6.25 µM (inactive) | > 6.25 µM (inactive) | – | > 6.25 µM (inactive) | > 6.25 µM (inactive) | > 6.25 µM (inactive) | > 6.25 µM (inactive) | > 6.25 µM (inactive) | > 6.25 µM (inactive) | > 6.25 µM (inactive) | – | > 6.25 µM (inactive) | > 6.25 µM (inactive) | > 6.25 µM (inactive) | > 6.25 µM (inactive) | > 6.25 µM (inactive) | > 6.25 µM (inactive) | > 6.25 µM (inactive)
8 | C=C(C)C1(Sc2ccc(OC)cc2)CC1 | 17.4 µM (inactive) | 33 µM (inactive) | 31.9 µM (inactive) | 33.6 µM (inactive) | 30.5 µM (inactive) | 31 µM (inactive) | 17.5 µM (inactive) | 17.6 µM (inactive) | 29.3 µM (inactive) | 15.6 µM (inactive) | 45.4 µM (inactive) | 12.2 µM (inactive) | 27.2 µM (inactive) | 17 µM (inactive) | 17.5 µM (inactive) | 14.5 µM (inactive) | 21.9 µM (inactive) | –
9 | O=C1C(O)=C(Cl)C(=O)c2c(O)ccc(O)c21 | > 100 µM (inactive) | > 100 µM (inactive) | > 100 µM (inactive) | – | > 100 µM (inactive) | > 100 µM (inactive) | – | > 100 µM (inactive) | > 100 µM (inactive) | > 100 µM (inactive) | > 100 µM (inactive) | > 100 µM (inactive) | > 100 µM (inactive) | > 100 µM (inactive) | > 100 µM (inactive) | > 100 µM (inactive) | > 100 µM (inactive) | –
10 | Cc1c(Br)c(Br)c(C)[s+]1[O-] | 8.89 µM (inactive) | 21.6 µM (inactive) | 34.9 µM (inactive) | 19 µM (inactive) | 13.7 µM (inactive) | 14.6 µM (inactive) | 11.8 µM (inactive) | – | 17.5 µM (inactive) | 12.6 µM (inactive) | 20.7 µM (inactive) | 13.6 µM (inactive) | 6 µM (inactive) | 3.2 µM (inactive) | 1.92 µM (inactive) | 5.92 µM (inactive) | – | 28.5 µM (inactive)
11 | C/C(CC(O)(/C=N/O)c1ccccc1)=N/O (configuration not stated) | > 100 µM (inactive) | > 100 µM (inactive) | > 100 µM (inactive) | > 100 µM (inactive) | > 100 µM (inactive) | > 100 µM (inactive) | > 100 µM (inactive) | – | > 100 µM (inactive) | > 100 µM (inactive) | > 100 µM (inactive) | > 100 µM (inactive) | > 100 µM (inactive) | – | > 100 µM (inactive) | > 100 µM (inactive) | – | > 100 µM (inactive)
12 | O=c1[nH]n(Cc2ccccc2CCl)c2ccc([N+](=O)[O-])cc12 | 49 µM (inactive) | 40.5 µM (inactive) | – | 55.3 µM (inactive) | 25 µM (inactive) | 23.8 µM (inactive) | 52.7 µM (inactive) | 32.9 µM (inactive) | 31.3 µM (inactive) | 62.1 µM (inactive) | 48.9 µM (inactive) | 88.3 µM (inactive) | 41.4 µM (inactive) | 26.6 µM (inactive) | 28.7 µM (inactive) | 48.2 µM (inactive) | – | 85.5 µM (inactive)
13 | C/C(=N/NC(=S)Nc1cccc(C)c1)c1ccccn1 | < 0.01 µM (active) | < 0.0183 µM (active) | – | < 0.0481 µM (active) | < 0.0532 µM (active) | 0.284 µM (active) | 0.226 µM (active) | 1.12 µM (inactive) | < 0.01 µM (active) | 1.35 µM (inactive) | 0.977 µM (active) | 0.285 µM (active) | < 0.01 µM (active) | < 0.01 µM (active) | < 0.01 µM (active) | < 0.01 µM (active) | 2.11 µM (inactive) | 3.82 µM (inactive)
14 | COC(=O)c1c([N+](=O)[O-])ncn1[C@H]1OC[C@@H](OC(C)=O)[C@@H](OC(C)=O)[C@@H]1OC(C)=O | > 100 µM (inactive) | > 100 µM (inactive) | > 100 µM (inactive) | > 100 µM (inactive) | > 100 µM (inactive) | > 100 µM (inactive) | > 100 µM (inactive) | > 100 µM (inactive) | > 100 µM (inactive) | > 100 µM (inactive) | > 100 µM (inactive) | > 100 µM (inactive) | > 100 µM (inactive) | > 100 µM (inactive) | > 100 µM (inactive) | > 100 µM (inactive) | > 100 µM (inactive) | –
15 | C=C(C)[C@@]1(O)CCC[C@H]1NC(=O)OC(C)(C)C | > 100 µM (inactive) | > 100 µM (inactive) | > 100 µM (inactive) | > 100 µM (inactive) | > 100 µM (inactive) | > 100 µM (inactive) | > 100 µM (inactive) | > 100 µM (inactive) | > 100 µM (inactive) | > 100 µM (inactive) | > 100 µM (inactive) | > 100 µM (inactive) | > 100 µM (inactive) | – | 84.9 µM (inactive) | > 100 µM (inactive) | > 100 µM (inactive) | –
16 | Cc1ccc2ccccc2c1CC1S(=O)(=O)OCCOS1(=O)=O | – | 14.5 µM (inactive) | – | 14.4 µM (inactive) | 12.1 µM (inactive) | 9.57 µM (inactive) | 10.1 µM (inactive) | – | 11.2 µM (inactive) | 9.48 µM (inactive) | 12.7 µM (inactive) | 14.1 µM (inactive) | 13.1 µM (inactive) | 2.12 µM (inactive) | 6.31 µM (inactive) | 6.89 µM (inactive) | – | –
17 | CC(=O)O[C@H]1CC(C)(C)C(=C=C/C(C)=C/C=C/C=C/C=C(C)/C=C2C=C(/C=C/[C@@]34O[C@]3(C)C[C@@H](O)CC4(C)C)C(=O)O/2)[C@](C)(O)C1 | 19.6 µM (inactive) | 3.76 µM (inactive) | 4.27 µM (inactive) | 19.3 µM (inactive) | 30.8 µM (inactive) | 8.09 µM (inactive) | 11.7 µM (inactive) | 4.01 µM (inactive) | 4.22 µM (inactive) | 12.7 µM (inactive) | 30.6 µM (inactive) | 15.8 µM (inactive) | 5.33 µM (inactive) | 1.78 µM (inactive) | 2.94 µM (inactive) | 10.1 µM (inactive) | 10 µM (inactive) | –
